The source made the active and inactive calls. The calls are words filed in the database; no cut-off is given here.
Key:
3T3-L1 [1] = experiment: Antiadipogenic activity in mouse 3T3L1 cells assessed as inhibition of CDCA-induced triglyceride accumulation after 6 days; type: functional, cell-based
[2] = target: T1, Vitamin D3 receptor (Homo sapiens) (UniProt P11473); experiment: Antagonist activity at human VDR expressed in HEK293T cells assessed as inhibition of 1,25(OH)2VD3-induced response at 1 uM after 24 hrs by luciferase reporter gene assay; type: cell-based
T1 sequence (whole entry): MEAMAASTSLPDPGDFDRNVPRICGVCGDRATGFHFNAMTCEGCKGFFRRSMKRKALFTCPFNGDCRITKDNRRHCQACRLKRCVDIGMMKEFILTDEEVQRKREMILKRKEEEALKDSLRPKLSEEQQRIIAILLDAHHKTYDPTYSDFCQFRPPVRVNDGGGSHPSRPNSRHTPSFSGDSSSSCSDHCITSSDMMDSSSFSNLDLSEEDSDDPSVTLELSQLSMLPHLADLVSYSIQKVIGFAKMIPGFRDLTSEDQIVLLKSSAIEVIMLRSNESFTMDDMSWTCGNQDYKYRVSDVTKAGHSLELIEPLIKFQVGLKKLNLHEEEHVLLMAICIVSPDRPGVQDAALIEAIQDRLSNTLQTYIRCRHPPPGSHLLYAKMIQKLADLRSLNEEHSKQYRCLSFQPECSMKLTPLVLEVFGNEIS

3T3-L1 [3] = experiment: Cytotoxicity against mouse 3T3L1 cells assessed as reduction in cell viability measured up to 10 uM after 6 days by CCK-8 assay; type: cell-based; details: 3t3-l1, 144 h
Bile acid receptor = target: T2, Bile acid receptor (Homo sapiens, UniProt Q96RI1); experiment: Antagonist activity at human FXR expressed in Hep3B cells assessed as inhibition of CDCA-induced FXR response element driven luciferase activity after 24 hrs; type: cell-based
T2 sequence (Q96RI1 whole entry): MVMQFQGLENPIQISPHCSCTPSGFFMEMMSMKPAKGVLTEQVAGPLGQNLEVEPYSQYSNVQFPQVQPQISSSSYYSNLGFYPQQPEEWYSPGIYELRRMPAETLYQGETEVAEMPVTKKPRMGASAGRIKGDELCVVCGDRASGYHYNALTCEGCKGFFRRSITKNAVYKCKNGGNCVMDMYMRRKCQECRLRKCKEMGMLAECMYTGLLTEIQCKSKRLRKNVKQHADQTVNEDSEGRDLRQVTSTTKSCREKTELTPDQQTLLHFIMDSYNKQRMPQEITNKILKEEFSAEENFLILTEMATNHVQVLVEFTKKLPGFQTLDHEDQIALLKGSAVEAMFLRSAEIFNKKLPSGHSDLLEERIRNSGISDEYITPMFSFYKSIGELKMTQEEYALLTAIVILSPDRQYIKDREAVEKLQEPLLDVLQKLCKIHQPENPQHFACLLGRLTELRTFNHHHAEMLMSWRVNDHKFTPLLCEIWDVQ

[4] = target: T3, Peroxisome proliferator-activated receptor delta (Homo sapiens) (UniProt Q03181); experiment: Antagonist activity at PPARdelta (unknown origin) assessed as inhibition of GW501516-induced response at 1 uM by luciferase reporter gene assay
T3 sequence (whole entry): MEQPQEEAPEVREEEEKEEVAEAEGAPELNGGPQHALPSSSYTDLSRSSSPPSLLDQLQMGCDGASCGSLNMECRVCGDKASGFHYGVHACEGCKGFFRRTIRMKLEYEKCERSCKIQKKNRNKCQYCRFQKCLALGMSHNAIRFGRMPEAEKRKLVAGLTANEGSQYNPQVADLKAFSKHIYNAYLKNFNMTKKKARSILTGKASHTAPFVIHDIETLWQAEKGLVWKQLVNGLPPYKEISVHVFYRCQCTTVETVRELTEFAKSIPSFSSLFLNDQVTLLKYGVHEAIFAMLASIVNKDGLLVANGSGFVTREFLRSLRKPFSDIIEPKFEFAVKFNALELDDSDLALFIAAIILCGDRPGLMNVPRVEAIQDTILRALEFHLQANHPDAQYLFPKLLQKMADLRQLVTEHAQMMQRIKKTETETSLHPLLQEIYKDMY

inhibition [2]: inactive | IC50 (Bile acid receptor): < 1 pM | inhibition [4]: inactive
SMILES: Cc1ccc2nc([C@H](CC3CCN(C(=O)C(C)C)CC3)N3C(=O)CN(c4ccc(Oc5ccccc5)cc4)C3=O)n(C)c2c1
inhibition (3T3-L1 [1]): Dose-dependent effect | Activity (3T3-L1 [3]): Non-Toxic

Reference: ChEMBL document CHEMBL4138296, “Nonacidic Chemotype Possessing N-Acylated Piperidine Moiety as Potent Farnesoid X Receptor (FXR) Antagonists” (ACS Med Chem Lett, 2018)
